Results: patent publication US10829452B2, “Histone methyltransferase inhibitors” (GLOBAL BLOOD THERAPEUTICS, INC., priority 2016, dated 2020)
Structures can show the parent of a compound that is named as a salt.

Molecular target: T1, G9a (Homo sapiens, UniProt Q96KQ7)
T1 sequence (Q96KQ7 1-1210): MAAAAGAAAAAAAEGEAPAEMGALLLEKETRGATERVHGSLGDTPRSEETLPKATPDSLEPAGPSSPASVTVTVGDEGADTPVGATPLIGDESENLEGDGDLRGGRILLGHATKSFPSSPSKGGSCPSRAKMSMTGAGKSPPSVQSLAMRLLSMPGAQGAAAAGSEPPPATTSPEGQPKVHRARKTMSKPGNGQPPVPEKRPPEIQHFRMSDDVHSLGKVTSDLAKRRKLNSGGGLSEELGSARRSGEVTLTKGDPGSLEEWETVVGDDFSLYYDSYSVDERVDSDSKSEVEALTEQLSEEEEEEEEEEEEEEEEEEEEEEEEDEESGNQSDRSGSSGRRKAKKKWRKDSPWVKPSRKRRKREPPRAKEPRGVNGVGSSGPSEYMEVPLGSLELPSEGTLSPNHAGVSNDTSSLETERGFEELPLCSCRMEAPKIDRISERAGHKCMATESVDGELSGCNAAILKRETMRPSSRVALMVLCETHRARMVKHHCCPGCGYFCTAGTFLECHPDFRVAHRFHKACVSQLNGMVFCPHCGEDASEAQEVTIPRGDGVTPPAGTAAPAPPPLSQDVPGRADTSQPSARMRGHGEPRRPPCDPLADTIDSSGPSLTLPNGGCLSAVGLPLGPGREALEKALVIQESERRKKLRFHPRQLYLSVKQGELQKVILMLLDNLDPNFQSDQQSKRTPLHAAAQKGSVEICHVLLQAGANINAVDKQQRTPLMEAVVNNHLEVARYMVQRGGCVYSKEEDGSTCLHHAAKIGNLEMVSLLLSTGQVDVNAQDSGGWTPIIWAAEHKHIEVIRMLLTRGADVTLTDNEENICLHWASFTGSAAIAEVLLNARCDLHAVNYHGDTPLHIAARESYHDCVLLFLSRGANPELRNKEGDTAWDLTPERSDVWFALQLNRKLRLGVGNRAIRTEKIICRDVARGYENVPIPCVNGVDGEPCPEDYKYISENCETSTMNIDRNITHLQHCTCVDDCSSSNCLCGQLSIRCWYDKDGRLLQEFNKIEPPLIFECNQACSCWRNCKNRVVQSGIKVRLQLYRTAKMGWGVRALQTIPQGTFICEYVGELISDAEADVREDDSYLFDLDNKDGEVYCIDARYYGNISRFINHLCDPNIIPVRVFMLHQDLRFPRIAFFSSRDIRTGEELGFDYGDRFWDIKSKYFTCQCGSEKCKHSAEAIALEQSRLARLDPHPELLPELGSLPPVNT
Assay: G9a AlphaLISA enzymatic activity assay
Assay type: biochemical
Conditions: 0.15 nM G9a, 15 uM S-adenosyl-methionine, 100 nM biotinylated histone 3 peptide (1-21), 1 hour at room temperature; read-out: G9a in (uM) (IC50, concentration that produced 50% inhibition)
Outline: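 Human G9a (0.15 nM) methylated 100 nM biotinylated histone H3(1-21) peptide with 15 uM SAM in Tris-HCl pH9 buffer with NaCl, Tween-20 and DTT, 1 h at room temperature. H3K9me2 was detected by AlphaLISA acceptor/streptavidin donor beads (20 ug/mL each); IC50 from percent inhibition across compound dilutions.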

Compound | IC50 [µM]
COc1cc2c3c(c(O)nc2cc1OCCCN1CCCC1)CCC3 [Example 37, 8-methoxy-7-[3-(pyrrolidin-1-yl)propoxy]-1H,2H,3H-cyclopenta[c]quinolin-4-ol trifluoroacetate] | 1.3
COc1cc2c3c(c(NC(C)C)nc2c(F)c1OCCCN1CCCC1)CCC3 [Example 63, 6-fluoro-8-methoxy-N-(propan-2-yl)-7-[3-(pyrrolidin-1-yl)propoxy]-1H,2H,3H-cyclopenta[c]quinolin-4-amine formate] | 2.3
CCNc1nc2cc(OCCCN3CCCC3)c(OC)cc2c2c1COCC2 [Example 58, N-ethyl-9-methoxy-8-[3-(pyrrolidin-1-yl)propoxy]-1H,2H,4H-pyrano[3,4-c]quinolin-5-amine formate] | 0.17
COc1cc2c3c(c(NC4CCN(C(C)C)CC4)nc2cc1OCCCN1CCCC1)CCC3 [Example 43, N-{8-methoxy-7-[3-(pyrrolidin-1-yl)propoxy]-1H,2H,3H-cyclopenta[c]quinolin-4-yl}-1-(propan-2-yl)piperidin-4-amine formate] | 1.7
CC(C)Nc1nc2cc(OCCCN3CCCC3)c(O)cc2c2c1CCC2 [Example 84, 4-[(propan-2-yl)amino]-7-[3-(pyrrolidin-1-yl)propoxy]-1H,2H,3H-cyclopenta[c]quinolin-8-ol trifluoroacetate] | 1.6
COc1cc2c3c(c(NCC4CC4)nc2cc1OCCCN1CCCC1)CC(C)(C)C3 [Example 97, N-(cyclopropylmethyl)-8-methoxy-2,2-dimethyl-7-[3-(pyrrolidin-1-yl)propoxy]-1H,2H,3H-cyclopenta[c]quinolin-4-amine formate] | 0.084
COc1cc2c3c(cnc2cc1OCCCN1CCCC1)CCCC3 [Example 40, 2-methoxy-3-[3-(pyrrolidin-1-yl)propoxy]-7,8,9,10-tetrahydrophenanthridine trifluoroacetate] | 1.3
COc1ccc(CNc2nc3cc(OCCCN4CCCC4)c(OC)cc3c3c2CC(C)(C)C3)c(OC)c1 [Example 117, N-[(2,4-dimethoxyphenyl)methyl]-8-methoxy-2,2-dimethyl-7-[3-(pyrrolidin-1-yl)propoxy]-1H,2H,3H-cyclopenta[c]quinolin-4-amine formate] | 0.36
COc1cc2c3c(c(NC(C)C)nc2cc1OCCCN1CCOCC1)CCC3 [Example 112, 8-methoxy-7-[3-(morpholin-4-yl)propoxy]-N-(propan-2-yl)-1H,2H,3H-cyclopenta[c]quinolin-4-amine trifluoroacetate] | > 10
COc1cc2c3c(c(N[C@H](C)C4CC4)nc2cc1OCCCN1CCCC1)CCC3 [Example 89, N-[(1R)-1-cyclopropylethyl]-8-methoxy-7-[3-(pyrrolidin-1-yl)propoxy]-1H,2H,3H-cyclopenta[c]quinolin-4-amine formate] | 0.14
CNc1nc2cc(OCCCN3CCCC3)c(OC)cc2c2c1CC(O)CC2 (stereo not shown) [Example 61, 2-methoxy-6-(methylamino)-3-[3-(pyrrolidin-1-yl)propoxy]-7,8,9,10-tetrahydrophenanthridin-8-ol formate] | 0.14
COc1cc2c3c(cnc2cc1OCCCN1CCCC1)CCC3 [Example 21, 1-[3-({8-methoxy-1H,2H,3H-cyclopenta[c]quinolin-7-yl}oxy)propyl]pyrrolidine trifluoroacetate] | 0.62

The next compounds have a lower IC50 than those just listed; values first:

IC50 [µM] | Compound
0.037 | COc1cc2c3c(c(NCC4CC4)nc2cc1OCCCN1CCCC1)CCC3 [Example 108, N-(cyclopropylmethyl)-8-methoxy-7-[3-(pyrrolidin-1-yl)propoxy]-1H,2H,3H-cyclopenta[c]quinolin-4-amine trifluoroacetate]
0.023 | CC[C@H](C)Nc1nc2cc(OCCCN3CCCC3)c(OC)cc2c2c1CCC2 [Example 99, N-[(2S)-butan-2-yl]-8-methoxy-7-[3-(pyrrolidin-1-yl)propoxy]-1H,2H,3H-cyclopenta[c]quinolin-4-amine formate]
0.004 | CNc1nc2cc(OCCCN3CCCC3)c(OC)cc2c2c1CCCN2 [Example 26, 9-methoxy-N-methyl-8-[3-(pyrrolidin-1-yl)propoxy]-1H,2H,3H,4H-benzo[h]1,6-naphthyridin-5-amine formate]
0.003 | COc1cc2c3c(c(C)nc2cc1OCCCN1CCCC1)CCC(C)(C)N3 [Example 78, 1-[3-({9-methoxy-2,2,5-trimethyl-1H,2H,3H,4H-benzo[h]1,6-naphthyridin-8-yl}oxy)propyl]pyrrolidine]
0.075 | COc1cc2c3c(c(NCCSC)nc2cc1OCCCN1CCCC1)CCC3 [Example 120, 8-methoxy-N-[2-(methylsulfanyl)ethyl]-7-[3-(pyrrolidin-1-yl)propoxy]-1H,2H,3H-cyclopenta[c]quinolin-4-amine formate]
0.006 | COc1cc2c3c(c(C)nc2cc1OCCCN1CCCC1)CCCN3 [Example 28, 1-[3-({9-methoxy-5-methyl-1H,2H,3H,4H-benzo[h]1,6-naphthyridin-8-yl}oxy)propyl]pyrrolidine trifluoroacetate]
0.009 | COc1cc2c3c(c(C4=CCCC4)nc2cc1OCCCN1CCCC1)CC(C)(C)N3 [Example 83, 1-(3-{[4-(cyclopent-1-en-1-yl)-8-methoxy-2,2-dimethyl-1H,2H,3H-pyrrolo[3,2-c]quinolin-7-yl]oxy}propyl)pyrrolidine]
0.003 | CNc1nc2cc(OCCCN3CCCC3)c(OC)cc2c2c1CCN2 [Example 22, 8-methoxy-N-methyl-7-[3-(pyrrolidin-1-yl)propoxy]-1H,2H,3H-pyrrolo[3,2-c]quinolin-4-amine trifluoroacetate]
0.003 | COc1cc2c3c(c(NC(C)C)nc2cc1OCCCN1CCCC1)CCN3 [Example 23, 8-methoxy-N-(propan-2-yl)-7-[3-(pyrrolidin-1-yl)propoxy]-1H,2H,3H-pyrrolo[3,2c]-quinolin-4-amine trifluoroacetate]
0.02 | CCCNc1nc2cc(OCCCN3CCCC3)c(OC)cc2c2c1CCC2 [Example 104, 8-methoxy-N-propyl-7-[3-(pyrrolidin-1-yl)propoxy]-1H,2H,3H-cyclopenta[c]quinolin-4-amine trifluoroacetate]
0.042 | COc1cc2c3c(c(NC(C)C)nc2cc1OCCCN1CCCC1)CCCC3 [Example 13, 2-methoxy-N-(propan-2-yl)-3-[3-(pyrrolidin-1-yl)propoxy]-7,8,9,10-tetrahydrophenanthridin-6-amine formate]
0.057 | COc1cc2c3c(c(NC4CC4)nc2cc1OCCCN1CCCC1)CCCC3 [Example 19, N-cyclopropyl-2-methoxy-3-[3-(pyrrolidin-1-yl)propoxy]-7,8,9,10-tetrahydrophenanthridin-6-amine formate]
0.04 | COc1cc2c3c(c(NCCO)nc2cc1OCCCN1CCCC1)CCC3 [Example 4, 2-({8-methoxy-7-[3-(pyrrolidin-1-yl)propoxy]-1H,2H,3H-cyclopenta[c]quinolin-4-yl}amino)ethan-1-oltrifluoroacetate trifluoroacetate]
